Assay [1] deals with LPS-induced TNF-α production in serum. Briefly: In vivo LPS-induced inflammatory experiment, serum TNF-α. Set-up: species or system mouse. The conditions noted are these: female C57BL/6 mice; 100 mg/kg BW intraperitoneal, 30 min before LPS 250 μg/kg BW i.p.; serum 1 h after LPS. The procedure: All animal studies were performed according to the guidelines outlined in the “Care and Use of Laboratory Animals” of Kobe University. The animals were anesthetized with pentobarbital before undergoing cervical dislocation. Female 8-week-old C57BL/6 mice that had been bred in-house with free access to food and water were used for all experiments. All of the mice were maintained under a 12-h light/dark cycle and housed at a room temperature of 25 °C.
Mice were intraperitoneally injected with 200 μL of MK-2 dissolved in corn oil at 100 mg/kg body weight (BW), or 200 μL of corn oil as a vehicle control. After 30 min, the mice were intraperitoneally injected with 200 μL of 250 μg/kg BW LPS dissolved in PBS or 200 μL of PBS as a vehicle control. After 1 h, the mice were killed, and blood samples were collected. The blood serum was separated by centrifugation at 15,000 × g for 10 min at 4 °C, and the TNF-α level in the serum was measured by ELISA.

For assay [2], the target named is T1, Bovine deoxyribonuclease I (Bos taurus, UniProt P00639).
T1 construct: purchased
The assay can be described thus: DNA metabolic enzyme assay, bovine deoxyribonuclease I. Format: biochemical. The conditions noted are these: other DNA metabolic enzyme; read-out: IC50 Value of MK-2, Bovine deoxyribonuclease I. The procedure: (§1) Pols from mammals, a fish (cherry salmon), an insect (fruit fly) and a plant (cauliflower) were purified, and prokaryotic pols and other DNA metabolic enzymes, such as T7 RNA polymerase, T4 polynucleotide kinase and bovine deoxyribonuclease I, were purchased as described in our previous report. The activities of all pols and other DNA metabolic enzymes were measured as described in previous reports.

Assay [3] has as its system nuclear translocation of NF-κB p65 in RAW264.7 cells. The assay can be described thus: LPS-induced nuclear translocation of NF-κB p65 (Western blot). Format: cell-based, mouse. The conditions noted are these: 10 μM MK-2 30 min, then 100 ng/mL LPS 30 min, LPS alone 4.47-fold. As to the method:
RAW264.7 cells on a 6-well plate at 5 × 10^5 cells/well were incubated with 10 μM of MK-2 or DMSO (1 μL/mL) as a vehicle control for 30 min, followed by treatment with 100 ng/mL of LPS for 30 min. After treatment, cells were harvested with lysis buffer consisting of 10 mM Hepes (pH 7.9), 10 mM KCl, 1.5 mM MgCl2 and 0.5 mM DTT containing protease inhibitors (1 mM phenylmethylsulfonyl fluoride [PMSF], 5 μg/mL of leupeptin and 5 μg/mL of aprotinin) and phosphatase inhibitors (10 mM NaF and 1 mM Na3VO4) and stood on ice for 15 min with occasional mixing. The mixture was centrifuged at 1000 × g for 10 min at 4 °C. […] The protein concentration was measured by using a bicinchoninic acid (BCA) assay kit in accordance with the manufacturer’s protocol. […]
The nuclear proteins (30–50 μg of protein) were boiled in a quarter-volume of sample buffer (1 M Tris-HCl [pH 7.5], 640 mM 2-mercaptoethanol, 0.2% bromphenol blue, 4% SDS and 20% glycerol) and then separated on 10% SDS polyacrylamide gels. […] The protein-antibody complex was visualized with ChemiLumiONE (Nacalai Tesque, Kyoto, Japan) and detected using an Image Reader (LAS-3000 Imaging System, Fuji Photo Film, Tokyo, Japan). The intensity of each band was analyzed using ImageJ, which was developed at the National Institute of Health.

In another assay the target is T2, T7 RNA polymerase (Escherichia phage T7, UniProt P00573).
T2 construct: purchased
The assay can be described thus: DNA metabolic enzyme assay, T7 RNA polymerase. Format: biochemical. The note with it: other DNA metabolic enzyme; read-out: IC50 Value of MK-2, T7 RNA polymerase. The procedure: as §1

For assay [4], the target named is T3, Fruit fly DNA polymerase δ (Drosophila melanogaster, UniProt P54358).
T3 construct: made in house
Briefly: DNA polymerase activity assay, fruit fly pol δ. In kind it is biochemical. The note with it: insect pol; read-out: IC50 Value of MK-2, Fruit fly DNA polymerase δ. The procedure: as §1
(§2) The components of the pol assay were poly(dA)/oligo(dT)18 and dTTP as the DNA template-primer and 2′-deoxyribonucleoside 5′-triphosphate (dNTP) substrate, respectively. VK2, VK3, and their synthesized derivatives (i.e., MK-3, MK-2 and MK-1) were dissolved in dimethyl sulfoxide (DMSO) at various concentrations and sonicated for 30 s. The sonicated samples (4 μL) were mixed with 16 μL of each pol enzyme (final amount, 0.05 units) in 50 mM Tris-HCl (pH 7.5) containing 1 mM dithiothreitol, 50% glycerol and 0.1 mM EDTA, and kept at 0 °C for 10 min. […] Activity without the inhibitor was considered to be 100%, and the activity remaining at each concentration of inhibitor was determined relative to this value. […]

The target in assay [5] is Calf primase of DNA polymerase α (Bos taurus, UniProt A0A3Q1MF00). The assay can be described thus: DNA metabolic enzyme assay, calf primase of pol α. Format: biochemical. The note with it: other DNA metabolic enzyme; read-out: IC50 Value of MK-2, Calf primase of DNA polymerase α. The procedure:
as §1

The target in assay [6] is Cauliflower DNA polymerase α (Brassica oleracea var. botrytis, UniProt A0A0D3D890). The assay can be described thus: DNA polymerase activity assay, cauliflower pol α. The note with it: plant pol; read-out: IC50 Value of MK-2, Cauliflower DNA polymerase α. Format: biochemical. The procedure: as §1, §2
In another assay the target is T4, Rat DNA polymerase β (Rattus norvegicus, UniProt P06766).
T4 construct: made in house
Briefly: DNA polymerase activity assay, rat pol β. Format: biochemical. The note with it: X-family pol; read-out: IC50 Value of MK-2, Rat DNA polymerase β. As to the method:
as §1, §2

These results are taken from paper PMC3083694, “Effects of Intermediates between Vitamins K2 and K3 on Mammalian DNA Polymerase Inhibition and Anti-Inflammatory Activity” (International Journal of Molecular Sciences, 2011).

A value given as a limit tells only on which side of the number the result lay.

Cauliflower DNA polymerase α, sequence (A0A0D3D890 entry or part of it): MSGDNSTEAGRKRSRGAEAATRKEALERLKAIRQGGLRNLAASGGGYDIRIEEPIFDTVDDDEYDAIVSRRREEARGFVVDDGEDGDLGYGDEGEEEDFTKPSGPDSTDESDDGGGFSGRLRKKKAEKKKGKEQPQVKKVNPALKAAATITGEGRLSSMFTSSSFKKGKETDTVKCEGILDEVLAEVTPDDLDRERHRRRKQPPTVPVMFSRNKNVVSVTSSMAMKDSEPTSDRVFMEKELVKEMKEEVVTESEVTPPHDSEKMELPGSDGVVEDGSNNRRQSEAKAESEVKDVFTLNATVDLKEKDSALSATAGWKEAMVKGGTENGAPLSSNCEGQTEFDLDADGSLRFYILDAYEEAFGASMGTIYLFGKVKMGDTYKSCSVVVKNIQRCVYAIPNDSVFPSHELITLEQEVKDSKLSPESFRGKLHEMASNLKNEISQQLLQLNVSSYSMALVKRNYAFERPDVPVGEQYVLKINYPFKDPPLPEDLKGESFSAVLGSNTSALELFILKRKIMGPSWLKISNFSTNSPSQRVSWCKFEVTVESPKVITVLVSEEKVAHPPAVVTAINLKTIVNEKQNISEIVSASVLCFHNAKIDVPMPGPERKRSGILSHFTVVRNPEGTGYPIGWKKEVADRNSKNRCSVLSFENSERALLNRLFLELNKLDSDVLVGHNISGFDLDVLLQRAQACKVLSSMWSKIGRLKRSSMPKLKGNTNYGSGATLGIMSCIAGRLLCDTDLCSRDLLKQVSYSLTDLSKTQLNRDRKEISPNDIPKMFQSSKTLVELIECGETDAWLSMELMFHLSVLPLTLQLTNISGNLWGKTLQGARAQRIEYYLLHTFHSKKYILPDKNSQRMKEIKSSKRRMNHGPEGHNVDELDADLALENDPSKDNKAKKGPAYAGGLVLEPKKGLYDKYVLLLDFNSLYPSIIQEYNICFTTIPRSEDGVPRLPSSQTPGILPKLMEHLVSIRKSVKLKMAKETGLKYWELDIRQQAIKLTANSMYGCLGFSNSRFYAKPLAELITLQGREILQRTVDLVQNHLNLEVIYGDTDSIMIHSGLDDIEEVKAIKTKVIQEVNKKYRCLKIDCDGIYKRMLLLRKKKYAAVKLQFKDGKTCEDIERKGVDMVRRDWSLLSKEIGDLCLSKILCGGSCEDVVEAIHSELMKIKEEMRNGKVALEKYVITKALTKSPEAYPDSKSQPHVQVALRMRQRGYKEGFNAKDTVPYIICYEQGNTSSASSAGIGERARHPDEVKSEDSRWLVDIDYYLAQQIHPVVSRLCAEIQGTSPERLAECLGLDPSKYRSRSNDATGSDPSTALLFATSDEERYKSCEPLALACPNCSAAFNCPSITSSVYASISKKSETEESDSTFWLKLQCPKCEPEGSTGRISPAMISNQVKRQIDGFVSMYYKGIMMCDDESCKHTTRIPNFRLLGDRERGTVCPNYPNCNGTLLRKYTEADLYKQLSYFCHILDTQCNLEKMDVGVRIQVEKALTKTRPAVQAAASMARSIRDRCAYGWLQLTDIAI
T1 sequence (P00639 23-282): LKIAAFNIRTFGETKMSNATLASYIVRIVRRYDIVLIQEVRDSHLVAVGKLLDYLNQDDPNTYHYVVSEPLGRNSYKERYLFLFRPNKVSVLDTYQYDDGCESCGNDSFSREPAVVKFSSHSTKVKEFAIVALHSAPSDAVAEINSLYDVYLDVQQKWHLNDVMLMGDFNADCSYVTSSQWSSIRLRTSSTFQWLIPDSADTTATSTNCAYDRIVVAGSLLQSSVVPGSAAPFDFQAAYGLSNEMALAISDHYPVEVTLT
T3 sequence (P54358 whole entry): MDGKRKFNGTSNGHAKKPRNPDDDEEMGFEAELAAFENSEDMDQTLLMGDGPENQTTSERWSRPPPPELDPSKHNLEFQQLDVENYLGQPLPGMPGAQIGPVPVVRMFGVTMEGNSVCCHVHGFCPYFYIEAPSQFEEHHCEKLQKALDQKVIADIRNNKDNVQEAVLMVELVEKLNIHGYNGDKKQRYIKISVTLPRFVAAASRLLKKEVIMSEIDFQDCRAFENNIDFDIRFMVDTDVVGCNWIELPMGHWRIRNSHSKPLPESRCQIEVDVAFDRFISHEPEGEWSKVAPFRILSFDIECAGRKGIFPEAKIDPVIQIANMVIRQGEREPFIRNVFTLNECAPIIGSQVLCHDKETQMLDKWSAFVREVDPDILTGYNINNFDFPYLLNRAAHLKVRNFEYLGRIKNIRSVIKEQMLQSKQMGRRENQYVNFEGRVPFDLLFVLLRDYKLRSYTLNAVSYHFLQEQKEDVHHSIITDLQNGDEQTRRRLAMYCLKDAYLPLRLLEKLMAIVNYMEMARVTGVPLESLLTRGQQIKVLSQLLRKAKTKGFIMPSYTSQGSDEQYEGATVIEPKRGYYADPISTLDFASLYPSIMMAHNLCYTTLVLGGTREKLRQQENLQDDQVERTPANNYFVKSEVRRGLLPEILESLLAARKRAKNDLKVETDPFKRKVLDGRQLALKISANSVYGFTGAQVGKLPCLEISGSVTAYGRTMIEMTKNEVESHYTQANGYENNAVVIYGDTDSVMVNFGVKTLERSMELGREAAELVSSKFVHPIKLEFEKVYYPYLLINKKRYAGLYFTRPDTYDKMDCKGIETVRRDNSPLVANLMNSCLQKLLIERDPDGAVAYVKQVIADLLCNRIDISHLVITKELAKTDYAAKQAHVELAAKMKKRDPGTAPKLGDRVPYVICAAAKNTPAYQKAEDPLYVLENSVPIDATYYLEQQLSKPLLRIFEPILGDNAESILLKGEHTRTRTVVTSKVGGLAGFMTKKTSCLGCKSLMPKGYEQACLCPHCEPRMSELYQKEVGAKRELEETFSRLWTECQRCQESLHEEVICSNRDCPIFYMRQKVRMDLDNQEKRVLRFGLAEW
T2 sequence (P00573 whole entry): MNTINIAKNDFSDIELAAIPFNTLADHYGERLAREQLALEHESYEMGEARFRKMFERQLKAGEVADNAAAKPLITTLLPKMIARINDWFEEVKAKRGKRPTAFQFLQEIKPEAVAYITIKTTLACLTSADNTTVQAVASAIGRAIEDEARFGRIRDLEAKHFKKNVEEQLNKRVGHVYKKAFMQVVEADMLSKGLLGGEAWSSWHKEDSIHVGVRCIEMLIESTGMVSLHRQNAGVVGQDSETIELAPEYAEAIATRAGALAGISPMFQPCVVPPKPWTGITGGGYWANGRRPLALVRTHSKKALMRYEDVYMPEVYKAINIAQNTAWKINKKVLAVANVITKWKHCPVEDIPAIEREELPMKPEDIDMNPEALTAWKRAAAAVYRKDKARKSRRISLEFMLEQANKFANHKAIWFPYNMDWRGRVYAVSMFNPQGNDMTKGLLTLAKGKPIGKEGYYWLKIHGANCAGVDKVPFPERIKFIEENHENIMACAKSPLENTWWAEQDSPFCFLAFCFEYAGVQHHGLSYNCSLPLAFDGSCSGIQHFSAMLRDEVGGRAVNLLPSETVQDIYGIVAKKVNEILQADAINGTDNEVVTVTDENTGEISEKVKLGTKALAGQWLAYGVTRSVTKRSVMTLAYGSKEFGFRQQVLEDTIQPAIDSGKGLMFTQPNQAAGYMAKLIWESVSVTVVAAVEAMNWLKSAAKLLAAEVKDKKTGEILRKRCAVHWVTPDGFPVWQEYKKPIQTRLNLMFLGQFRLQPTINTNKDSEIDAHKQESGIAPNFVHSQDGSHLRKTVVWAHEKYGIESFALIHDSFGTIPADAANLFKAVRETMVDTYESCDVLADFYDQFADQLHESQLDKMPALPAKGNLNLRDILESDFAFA

Consider `CC(C)=CCC/C(C)=C/CC1=C(C)C(=O)c2ccccc2C1=O` [MK-2], for which, in assay [1], the “Decrease of LPS-induced serum TNF-α production” value is 83.2%. For the same compound, the IC50 in assay [2] is greater than 200 µM; at T7 RNA polymerase it was greater than 200 µM; in assay [4], 36.9 ± 2.2 µM; in assay [5], greater than 200 µM; in assay [6], greater than 200 µM; on Rat DNA polymerase β, 31 ± 1.8 µM. Moreover, in assay [3], the “LPS-stimulated nuclear translocation of NF-κB p65 relative to treatment without LPS” value stood at 2.04 fold.
